Measured values taken from patent US5521173A, “Tricyclic benzazepine vasopressin antagonists” (American Home Products Corporation, priority 1995, dated 1996).

What was measured:
[1] = target: T1, Vasopressin V1 receptor subtype in Human Platelet Membranes (Homo sapiens, UniProt P37288); assay: Binding to Vasopressin V1 receptor subtype in Human Platelet Membranes
T1 construct: tissue Hudson Valley Blood Services, Westchester Medical Center, Valhalla, N.Y; host or cells: human platelets (frozen platelet rich plasma)
T1 sequence (P37288 whole entry): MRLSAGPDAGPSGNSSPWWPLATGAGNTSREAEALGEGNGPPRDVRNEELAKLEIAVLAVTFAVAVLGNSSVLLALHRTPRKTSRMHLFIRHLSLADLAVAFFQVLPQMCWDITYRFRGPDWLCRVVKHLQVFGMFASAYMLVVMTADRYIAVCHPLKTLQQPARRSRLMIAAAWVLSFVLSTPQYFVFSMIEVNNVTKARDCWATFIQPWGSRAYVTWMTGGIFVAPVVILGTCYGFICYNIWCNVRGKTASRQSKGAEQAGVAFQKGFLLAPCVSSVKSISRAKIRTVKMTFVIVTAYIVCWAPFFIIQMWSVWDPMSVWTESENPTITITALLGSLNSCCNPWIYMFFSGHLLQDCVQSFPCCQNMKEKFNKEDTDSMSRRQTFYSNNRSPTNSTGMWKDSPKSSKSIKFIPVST
Protocol: Radioligand Binding Experiments with Human Platelet Membranes
(a) Platelet Membrane Preparation
Frozen platelet rich plasma (PRP), (Platelet Source: Hudson Valley Blood Services, Westchester Medical Center, Valhalla, N.Y.) are thawed to room temperature. The tubes containing the PRP are centrifuged at 16,000×g for 10 min. at 4° C. and the supernatant fluid discarded. The platelets resuspended in an equal volume of 50.0 mM Tris.HCl, pH 7.5 containing 120 mM NaCl and 20.0 mM EDTA. The suspension is recentrifuged at 16,000× g for 10 min. This washing step is repeated one more time. The wash discarded and the lysed pellets homogenized in low ionic strength buffer of Tris.HCl, 5.0 mM, pH 7.5 containing 5.0 mM EDTA. The homogenate is centrifuged at 39,000× g for 10 min. The resulting pellet is resuspended in Tris.HCl buffer, 70.0 mM, pH 7.5 and recentrifuged at 39,000× g for 10 min. The final pellet is resuspended in 50.0 mM Tris.HCl buffer pH 7.4 containing 120 mM NaCl and 5.0 mM KCl to give 1.0-2.0 mg protein per ml of suspension.
(b) Binding to Vasopressin V1 receptor subtype in Human Platelet Membranes
In wells of a 96 well format microtiter plate, add 100 μl of 50.0 mM Tris.HCl buffer containing 0.2% BSA and a mixture of protease inhibitors (aprotinin, leupeptin etc.). Then add 20 μl of [^3 H]Ligand (Manning or Arg^8 Vasopressin), to give final concentrations ranging from 0.01 to 10.0 nM. Initiate the binding by adding 80.0 μl of platelet suspension (approx. 100 μg protein). Mix all reagents by pipetting the mixture up and down a few times. Non specific binding is measured in the presence of 1.0 µM of unlabeled ligand (Manning or Arg^8 Vasopressin). Let the mixture stand undisturbed at room temperature for ninety (90) min. Upon this time, rapidly filter off the incubate under vacuum suction over GF/B filters, using a Brandel Harvester. Determine the radioactivity caught on the filter disks by the addition of liquid scintillant and counting in a liquid scintillator.

[2] = target: T2, Human V2 Vasopressin Receptor (Homo sapiens, UniProt P30518); assay: Binding to Membranes of Mouse Fibroblast Cell Line (LV-2) Transfected with the cDNA Expressing the Human V2 Vasopressin Receptor; details: ** LV-2 cell membranes
T2 construct: expressed in transfected cells; host or cells: mouse fibroblast cell line LV-2
T2 sequence (P30518 whole entry): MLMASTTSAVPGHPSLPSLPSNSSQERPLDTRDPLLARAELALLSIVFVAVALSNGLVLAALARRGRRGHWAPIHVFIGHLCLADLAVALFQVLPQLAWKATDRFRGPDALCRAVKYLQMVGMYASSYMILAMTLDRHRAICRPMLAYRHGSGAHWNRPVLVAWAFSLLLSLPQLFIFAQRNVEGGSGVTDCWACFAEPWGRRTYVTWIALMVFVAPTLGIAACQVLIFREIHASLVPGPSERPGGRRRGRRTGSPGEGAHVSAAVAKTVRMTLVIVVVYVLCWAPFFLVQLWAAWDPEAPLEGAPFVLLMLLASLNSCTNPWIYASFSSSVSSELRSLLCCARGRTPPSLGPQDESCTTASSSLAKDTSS
Protocol: (a) Membrane Preparation Flasks of 175 ml capacity, containing attached cells grown to confluence, are cleared of culture medium by aspiration. […] The content of all flasks is poured into a centrifuge tube and the cells pelleted at 300× g for 15 min. The Hank's based solution is aspirated off and the cells homogenized with a polytron at setting #6 for 10 sec in 10.0 mM Tris.HCl buffer, pH 7.4 containing 0.25M sucrose and 1.0 mM EDTA. The homogenate is centrifuged at 1500× g for 10 min to remove ghost membranes. The supernatant fluid is centrifuged at 100,000× g for 60 min to pellet the receptor protein. […] (b) Receptor Binding […] Non specific binding is assessed in the presence of 1.0 μM of unlabeled ligand, added in 20 μl volume. […] The radioactivity trapped on the filter disk by the ligand-receptor complex is assessed by liquid scintillation counting in a Packard LS Counter, with an efficiency of 65% for tritium. The data are analyzed for IC50 values by the LUNDON-2 program for competition (LUNDON SOFTWARE, Ohio).

[3] = target: T3, oxytocin receptors (Rattus norvegicus, UniProt P70536); assay: Oxytocin Receptor Binding; parameters: species or system rat (female Sprague-Dawley); details: for IC50: 1.0 nM [3H]OT
T3 construct: The uteri are dissected out, cleaned of fat and connective tissues; from tissue; host or cells: uteri of DES-treated female Sprague-Dawley rats
T3 sequence (P70536 1-388): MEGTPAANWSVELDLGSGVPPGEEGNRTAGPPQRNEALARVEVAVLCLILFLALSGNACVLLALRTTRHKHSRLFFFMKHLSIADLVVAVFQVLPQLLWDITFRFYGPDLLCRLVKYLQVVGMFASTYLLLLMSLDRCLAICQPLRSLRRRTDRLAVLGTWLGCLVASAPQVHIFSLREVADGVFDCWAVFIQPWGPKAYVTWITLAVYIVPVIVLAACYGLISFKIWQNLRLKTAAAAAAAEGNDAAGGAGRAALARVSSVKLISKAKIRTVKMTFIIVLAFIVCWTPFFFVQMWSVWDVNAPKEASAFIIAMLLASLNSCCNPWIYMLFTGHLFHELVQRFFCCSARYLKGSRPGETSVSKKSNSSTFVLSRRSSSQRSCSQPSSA
Protocol: Oxytocin Receptor Binding
Female Sprague-Dawley rats weighing approximately 200-250 g are injected intramuscularly (i.m.) with 0.3 mg/kg of body weight of diethylstilbestrol (DES). The rats are sacrificed 18 hours later under pentobarbital anesthesia. The uteri are dissected out, cleaned of fat and connective tissues and rinsed in 50 ml of normal saline. The tissue pooled from six rats is homogenized in 50 ml of […] Tris.HCl, containing 0.5 mM dithiothreitol and 1.0 mM EDTA, adjusted to pH 7.4, using a polytron at setting 6 with three passes of 10 sec each. The homogenate is passed through two (2) layers of cheesecloth and the filtrate centrifuged at 1000× g for 10 min. The clear supernatant is removed and recentrifuged at 165,000× g for 30 min. The resulting pellet containing the oxytocin receptors is resuspended in 50.0 mM Tris.HCl containing 5.0 mM MgCl2 at pH 7.4, to give a protein concentration of 2.5 mg/ml of tissue suspension. This preparation is used in subsequent binding assays with [^3 H]Oxytocin.
Binding of 3,5-[^3 H]Oxytocin ([^3 H]OT) to its receptors is done in microtiter plates using [^3 H]OT, at various concentrations, in an assay buffer of 50.0 mM Tris.HCl, pH 7.4 and containing 5.0 mM MgCl2, and a mixture of protease inhibitors: BSA, 0.1 mg; aprotinin, 1.0 mg; 1,10-phenanthroline, 2.0 mg; […], 10.0 mg; and PMSF, 0.3 mg per 100 ml of buffer solution. Non-specific binding is determined in the presence of 1.0 uM unlabeled OT. The binding reaction is terminated after 60 min., at 22° C., by rapid filtration through glass fiber filters using a Brandel, cell harvester (Biomedical Research and Development Laboratories,Inc., Gaithersburg, Md.). Competition experiments are conducted at equilibrium using 1.0 nM [^3 H]OT and varying the concentration of the displacing agents. The concentrations of agent displacing 50% of [^3 H]OT at its sites (IC50) are calculated by a computer assisted LUNDON-2 program (LUNDON SOFTWARE INC., Ohio, USA).

Compound | IC50 [1] [nM] | IC50 [2] [nM] | inhibition at 10 µM [3] [%] | IC50 [3] [nM]
O=C(c1ccc(-c2cc(F)cc(F)c2)cc1)N1Cc2cccn2Cc2ccccc21 [Example 3, 10,11-Dihydro-10-[4-(3,5-difluorophenyl)benzoyl]-5H-pyrrolo[2,1-c][1,4]benzodiazepine] | 85 | 2500 | 89 | 2600
O=C(c1ccc(-c2ccccc2)cc1)N1Cc2ccnn2Cc2ccccc21 [Example 7, 5-([1,1'-Biphenyl]-4-ylcarbonyl)-5,10-dihydro-4H-pyrazolo[5,1-c][1,4]benzodiazepine] | 14 | 1700 | 100 | 230
O=C(c1ccc(-c2ccccn2)cc1)N1Cc2cccn2Cc2ccccc21 [Example 9, 10,11-Dihydro-10-[4-(2-pyridinyl)benzoyl]-5H-pyrrolo[2,1-c][1,4]benzodiazepine] |  |  | 100 | 130

Further molecules by falling IC50 [3], results first:

IC50 [1] [nM] | IC50 [2] [nM] | inhibition at 10 µM [3] [%] | IC50 [3] [nM] | Compound
 |  | 95 | 1270 | O=C(c1ccc(-c2ccccc2C(F)(F)F)cc1)N1Cc2cccn2Cc2ccccc21 [Example 8]
2.9 | 390 | 81 | 43 | O=C(c1ccc(-c2ccccc2)cc1)N1Cc2cccn2Cc2ccccc21 [Example 19, 10-([1,1'-Biphenyl]-4-ylcarbonyl)-10,11-dihydro-5H-pyrrolo[2,1-c][1,4]benzodiazepine]
